What was measured:
[1] = tested on: HPC number and liver injury; assay: Infusion of SNS agonists into spontaneously steatohepatitic ob/ob mice; type: in vivo
[2] = tested on: hepatic progenitor cells (HPC); assay: CK19 positive HPC number in Dbh−/− mice infused with isoprenaline; type: in vivo; settings: ISO infused at 20 mg/kg/day
Protocol: (§1) Dbh^−/− mice were administered ISO as previously described (Mackintosh, C. A., et al. 2000). Mouse recombinant TWEAK (R&D systems) was administered IP at 0.04 μg/g body weight.

603B cells = assay: 603B cell proliferation assay (CCK-8 / direct cell counts); type: cell-based, murine
Protocol: Cell proliferation assay was performed using the Cell counting Kit-8 (CCK-8) according to the manufacturer's protocol.
To further confirm the CCK-8 assay we also directly counted the cell numbers in some experiments. Adherent cells were treated with 0.25% trypsin solution containing 0.02% EGTA in Ca^2+ and Mg^2+ free phosphate-buffered saline at 37° C. for 5 min, and the viable cell number and dead cell number was determined using Nucleocounter (Chemometec).

[3] = tested on: hepatic progenitor cells (HPC); assay: HPC number in livers of normal C57BL/6J mice (EpCAM flow cytometry, CK19 immunohistochemistry); type: in vivo; settings: ISO 2.5 mg/kg
Text: Control mice received PBS vehicle (Con). Data are representative from 2 independent experiments. Data are mean±s.e.m. (n=4 per group);
Mice received either a control treatment (Con) or isoprenaline (ISO);
Formalin-fixed paraffin-embedded tissue were cut at 4 μm onto glass slides coated with poly-l-lysine. For chromogenic IHC, antibody binding was visualized using the ImmPRESS Peroxidase Polymer Detection Reagents (Vector lab, UK). For double chromogenic IHC, microwave heat treatment in citric based solution (Vector lab, UK) were applied after the first color development. For immunofluorescence IHC or immunocytochemistry, Alexa Fluor 555 and Alexa Fluor 488 conjugated secondary antibody were used. Nuclei were stained with DAPI (Vector). All images were captured using a Nikon Eclipse e600 microscope and camera (DXM1200F) and acquired with NIS-Elements Advance software (Nikon). HPC numbers were counted by an expert liver pathologist unaware of the identity of the groups as previously described (Oben, J. A., et al. 2003).

[4] = tested on: canonical Wnt pathway (β-catenin) in 603B cells; assay: Canonical Wnt pathway in 603B cells (western blot, immunocytochemistry, real-time PCR); type: cell-based, murine
[5] = tested on: canonical Wnt pathway on HPC; assay: Canonical Wnt pathway in liver of ISO treated mice (PCR, immunohistochemistry); type: in vivo
Protocol: FIG. 2F are immunohistochemical stains for active β-catenin in a mouse liver 24 hours after administration of vehicle (Con) or Isoprenaline (ISO). Left panel=lower magnification; Right panel=higher magnification;
Formalin-fixed paraffin-embedded tissue were cut at 4 μm onto glass slides coated with poly-l-lysine. For chromogenic IHC, antibody binding was visualized using the ImmPRESS Peroxidase Polymer Detection Reagents (Vector lab, UK). For double chromogenic IHC, microwave heat treatment in citric based solution (Vector lab, UK) were applied after the first color development. For immunofluorescence IHC or immunocytochemistry, Alexa Fluor 555 and Alexa Fluor 488 conjugated secondary antibody were used. Nuclei were stained with DAPI (Vector). All images were captured using a Nikon Eclipse e600 microscope and camera (DXM1200F) and acquired with NIS-Elements Advance software (Nikon).
Duplicate PCR reactions were performed with multiplex PCR kit (Qiagen) using mixed primer (GAPDH and target primer). Semi-quantitative real time PCR was done with Rotor-Gene 3000 (Corbett Robotics) and QuantiFast SYBR Green PCR kit (Qiagen). All real-time PCR reactions were performed in triplicate with GAPDH as an internal control. Target gene levels in treated samples are presented as a ratio to levels detected in corresponding control samples, according to the ΔΔCt method.

[6] = tested on: APAP induced liver injury; assay: APAP induced liver injury model (serum ALT, % necrosis, deaths); settings: for ALT 3 h after APAP treatment: APAP alone vs APAP with ISO
Protocol: as §1
The degree of liver injury was assessed by histology and serum ALT. All liver sections were stained with haematoxylin and eosin (H&E) and scanned by NanoZoomer (Hamamatsu, Japan). Necrotic area was measured and expressed as a percentage of necrotic tissue in whole area of liver section using NDP.view (Hamamatsu, Japan).

[7] = tested on: canonical Wnt pathway (β-catenin, Wnt ligands); assay: Canonical Wnt pathway in livers of APAP treated mice (western blot, immunohistochemistry, Wnt ligand PCR); type: in vivo
Protocol: Semi-quantitative real time PCR was done with Rotor-Gene 3000 (Corbett Robotics) and QuantiFast SYBR Green PCR kit (Qiagen). All real-time PCR reactions were performed in triplicate with GAPDH as an internal control. Target gene levels in treated samples are presented as a ratio to levels detected in corresponding control samples, according to the ΔΔCt method. Western blotting was performed as described (Soeda, J et al., 2012). Western blots shown are representative of 2 or 3 independent repeats. Semi-quantitative analysis of western blots by densitometry was carried out using LabWorks 4.6 software (UVP, USA).

[8] = tested on: hepatic stellate cells (HSC) and Kupffer cells (KC); assay: Wnt expression in isolated liver cell types ex vivo; type: cell-based, mice; settings: presence of ISO
β-catenin in hepatocytes = assay: β-catenin expression on primary hepatocytes (western blotting); type: cell-based, mice; settings: data not shown
Protocol: Western blotting was performed as described (Soeda, J et al., 2012). Western blots shown are representative of 2 or 3 independent repeats. Semi-quantitative analysis of western blots by densitometry was carried out using LabWorks 4.6 software (UVP, USA).

[9] = tested on: HPC expansion and hepatomegaly; assay: Dbh−/− mice on a diet inducing NASH; type: in vivo; settings: infusion of ISO
[10] = tested on: hepatic progenitor cells (HPC); assay: HPC number in APAP induced liver injury model (flow cytometry, immunohistochemistry)
[11] = tested on: liver progenitors and liver injury; settings: chronic model of liver disease; cited from earlier work
[12] = tested on: HPC population and liver injury; settings: in vivo conditions simulating NASH
[13] = tested on: hepatic progenitor cells (HPC); type: in vivo, mice; settings: recombinant TWEAK 0.04 μg/g IP
Text: FIG. 5C are representative images of immunohistochemical staining with CK19 (DAB chromogen, brown), upper panels; and CK19 with Ki67 (AEC chromogen, red), double staining (middle panels) and NFκB p65 immunostaining (lower panels). Insert=higher magnification, arrow head indicates positive staining of ki67 in CK 19+ve HPCs. White arrow head indicates nuclear localization of NFKb p65 in periportal ductular cells;
Nuclei were stained with DAPI (Vector).

[14] = 24 h after APAP 375 mg/kg, APAP alone vs ISO (2.5 mg/kg) 1 h after APAP

NC[C@H](O)c1ccc(O)c(O)c1 [NE, Norepinephrine]
HPC number [1]: increases in HPC number
liver injury [1]: reduction in liver injury

CC(C)NCC(O)c1ccc(O)c(O)c1 (stereo not shown) [ISO, Isoprenaline]
HPC numbers (CK-19 positive cells) [2]: significantly recovered HPC numbers
603B cell proliferation (603B cells; ISO 100 pM-10 μM): induced 603B cell proliferation
number of HPC cells (EpCAM flow cytometry, CK19 immunohistochemistry) [3]: increased the number of the HPC cells
Wnt1, 3a, 6 and ma mRNA expression ([4]; 10 μM ISO, real-time PCR): significantly increased
expression of cyclin D1 ([4]; 10 μM ISO, western blot): significantly upregulated
expression of dephophorelated β-catenin (activated β-catenin) ([4]; 10 μM ISO, western blot): significantly upregulated
total β-catenin expression ([4]; 10 μM ISO, western blot): significantly increased
nuclear localisation of β-catenin ([4]; immunofluorescence cytochemistry): accumulation of β-catenin in the nuclei
Wnt6 mRNA in total liver ([5]; 24 h after ISO injection): upregulation of Wnt6 mRNA
β-catenin immunoreactivity on periportal ductular cell ([5]; 24 h after ISO, immunohistochemistry): strong β-catenin immunoreactivity
ALT 3 h after APAP treatment [6]: significantly attenuated
ALT [6, 14]: 674.1±173 IU/L
hepatic necrosis [6, 14]: 18.48±1.935%
effect on deaths after APAP ([6]; APAP 500 mg/kg intraperitoneally, ISO treatment): reduced by ISO treatment
APAP induced-liver injury (ALT) ([6]; ISO administered 3 hrs post APAP): markedly reduced APAP induced-liver injury
β-catenin expression in liver (Western blotting) ([7]; 24 h after injection, ISO treated vs APAP alone and controls): significantly increased
Wnt6 expression in total liver ([7]; APAP+ISO group compared to APAP only group, 24 h): significantly higher expression
Wnt 10a expression ([7]; APAP+ISO group, 2 h after APAP administration): significantly higher expression
β-catenin activation ([7]; APAP+ISO group, 3 h after APAP administration): significant β-catenin activation
activated β-catenin staining in liver (immunohistochemistry) ([7]; APAP+ISO treated groups, 24 h): strong β-catenin staining
Wnt 6 expression in HSC or KC [8]: did not induce upregulation of Wnt 6
β-catenin expression on hepatocytes (Western blotting) (β-catenin in hepatocytes): did not increase β-catenin expression
HPC number [1]: increases in HPC number
liver injury [1]: reduction in liver injury
loss of hepatomegaly and expansion of HPC on NASH diet [9]: reversed
protection of hepatocytes from APAP induced death (LDH release) (primary hepatocytes; ISO pre-treatment 100 pM-10 μM, 10 mM APAP): did not protect
number of HPCs (flow cytometry and immunohistochemistry) ([10]; APAP 375 mg/kg + ISO vs APAP alone): significantly increased the number of HPCs
HPC density in the smallest portal tract (CK19 positivity) ([10]; APAP+ISO group compared to APAP alone group): significantly increased

CC(=O)N[C@@H](CS)C(=O)O [NAC, N-Acetyl Cysteine]
hepatocyte injury (ALT) ([6]; NAC 150 mg/kg administered 1 hour following APAP overdose): markedly reduces hepatocyte injury
protection from APAP injury (ALT) ([6]; NAC administered 3 hrs post APAP): did not have a protective role

COc1cc2nc(N3CCN(C(=O)c4ccco4)CC3)nc(N)c2cc1OC [PRZ, prazosin]
liver injury [11]: reduced injury
liver progenitors [11]: expanded liver progenitors

CNC[C@H](O)c1cccc(O)c1 [PE, phenylephrine]
603B cell proliferation (603B cells; PE 10 pM to 10 μM): induced moderate but significant proliferation
ALT ([6]; APAP 375 mg/kg, PE 3 mg (3 mg/kg) 1 h after APAP, 24 hrs): 2000±1200
ALT ([6]; APAP 375 mg/kg, PE 10 mg (10 mg/kg) 1 h after APAP, 24 hrs): 450±200

CC(=O)Nc1ccc(O)cc1 [APAP, Paracetamol]
ALT 3 h after APAP treatment [6]: significant elevation in ALT
ALT [6, 14]: 3332±462.9 IU/L
deaths ([6]; APAP 500 mg/kg intraperitoneally): significant number of deaths

Wnt3a
β-catenin expression on hepatocytes (Western blotting) (β-catenin in hepatocytes): induced increased β-catenin expression

CC(C)NCC(O)COc1cccc2ccccc12 (stereo not shown) [PRL, propranolol]
effect on ISO induced 603B proliferation (603B cells; pre-treatment with 10 μM PRL, 10 μM ISO): inhibited ISO induced proliferation
HPC population [12]: expanded the HPC population
numbers of HPCs (CK19 positive cells density) ([10]; APAP with subsequent PRL): reduced numbers of HPCs

B1: DKK1: Wnt antagonist, recombinant mouse Dkk1 (protein, UniProt O54908 32-272, looked up)
Dickkopf-related protein 1: TLNSVLINSNAIKNLPPPLGGAGGQPGSAVSVAPGVLYEGGNKYQTLDNYQPYPCAEDEECGSDEYCSSPSRGAAGVGGVQICLACRKRRKRCMRHAMCCPGNYCKNGICMPSDHSHFPRGEIEESIIENLGNDHNAAAGDGYPRRTTLTSKIYHTKGQEGSVCLRSSDCAAGLCCARHFWSKICKPVLKEGQVCTKHKRKGSHGLEIFQRCYCGEGLACRIQKDHHQASNSSRLHTCQRH
proliferation of ISO-treated vs ISO plus DKK1-treated 603B cells (603B cells; recombinant Dkk1 0.1 μg/ml, ISO 10 μM, CCK8): trend towards statistical difference
effect on protection by EpCAM positive cell administration ([6]; APAP + EpCAM+ve cells + DKK1): reversed the effect of EpCAM positive cell administration
effect on protection by ISO stimulated 603B conditioned media (primary hepatocytes; recombinant DKK1 0.1 μg/ml with CM): reversed

B2: TWEAK: Tumour associated weak inducer of apoptosis; mouse recombinant TWEAK (R&D systems) (protein, UniProt O43508 94-249, looked up)
Tumor necrosis factor ligand …: SAPKGRKTRARRAIAAHYEVHPRPGQDGAQAGVDGTVSGWEEARINSSSPLRYNRQIGEFIVTRAGLYYLYCQVHFDEGKAVYLKLDLLVDGVLALRCLEEFSATAASSLGPQLRLCQVSGLLALRPGSSLRIRTLPWAHLKAAPFLTYFGLFQVH
APAP induced liver injury (% necrosis, serum ALT) ([6]; TWEAK 0.04 μg/g pre-treatment before APAP, 24 h): protected from APAP induced liver injury
HPC proliferation (CK19+ve cells) [13]: induced HPC proliferation

Source: patent US20150366821A1, “ADRENERGIC AGONISTS FOR USE IN TREATING LIVER DAMAGE” (priority 2012, published 2015)
